Experimental data taken from US9303012B2, “Pyridine-2-amides useful as CB2 agonists” (Hoffmann-La Roche Inc., priority 2012, dated 2016).

Key:
human CB2 receptors = human CB2 receptors (Homo sapiens (Human), UniProt P34972); assay: functional cAMP assay, CHO cells expressing human CB2 receptors; format: cell-based
Description: (§1) CHO cells expressing human CB1 or CB2 receptors are seeded 17-24 hours prior to the experiment 50.000 cells per well in a black 96 well plate with flat clear bottom (Corning Costar #3904) in DMEM (Invitrogen No. 31331), 1×HT supplement, with 10% fetal calf serum and incubated at 5% CO2 and 37° C. in a humidified incubator. The growth medium was exchanged with Krebs Ringer Bicarbonate buffer with 1 mM IBMX and incubated at 30° C. for 30 min. Compounds were added to a final assay volume of 100 μl and incubated for 30 min at 30° C. Using the cAMP-Nano-TRF detection kit the assay (Roche Diagnostics) was stopped by the addition of 50 μl lysis reagent (Tris, NaCl, 1.5% Triton X100, 2.5% NP40, 10% NaN3) and 50 μl detection solutions (20 μM mAb Alexa700-cAMP 1:1, and 48 μM Ruthenium-2-AHA-cAMP) and shaken for 2 h at room temperature. The time-resolved energy transfer is measured by a TRF reader (Evotec Technologies GmbH), equipped with a ND:YAG laser as excitation source. The plate is measured twice with the excitation at 355 nm and at the emission with a delay of 100 ns and a gate of 100 ns, total exposure time 10 s at 730 (bandwidth 30 nm) or 645 nm (bandwidth 75 nm), respectively. The FRET signal is calculated as follows: FRET=T730-Alexa730-P(T645-B645) with P=Ru730-B730/Ru645-B645, where T730 is the test well measured at 730 nM, T645 is the test well measured at 645 nm, B730 and B645 are the buffer controls at 730 nm and 645 nm, respectively. cAMP content is determined from the function of a standard curve spanning from 10 μM to 0.13 nM cAMP.
(§2) EC50 values were determined using Activity Base analysis (ID Business Solution, Limited). The EC50 values for a wide range of cannabinoid agonists generated from this assay were in agreement with the values published in the scientific literature.

human CB1 receptors = human CB1 receptors (Homo sapiens (Human), UniProt P21554); assay: functional cAMP assay, CHO cells expressing human CB1 receptors; format: cell-based
Chain of human CB1 receptors (P21554 whole entry): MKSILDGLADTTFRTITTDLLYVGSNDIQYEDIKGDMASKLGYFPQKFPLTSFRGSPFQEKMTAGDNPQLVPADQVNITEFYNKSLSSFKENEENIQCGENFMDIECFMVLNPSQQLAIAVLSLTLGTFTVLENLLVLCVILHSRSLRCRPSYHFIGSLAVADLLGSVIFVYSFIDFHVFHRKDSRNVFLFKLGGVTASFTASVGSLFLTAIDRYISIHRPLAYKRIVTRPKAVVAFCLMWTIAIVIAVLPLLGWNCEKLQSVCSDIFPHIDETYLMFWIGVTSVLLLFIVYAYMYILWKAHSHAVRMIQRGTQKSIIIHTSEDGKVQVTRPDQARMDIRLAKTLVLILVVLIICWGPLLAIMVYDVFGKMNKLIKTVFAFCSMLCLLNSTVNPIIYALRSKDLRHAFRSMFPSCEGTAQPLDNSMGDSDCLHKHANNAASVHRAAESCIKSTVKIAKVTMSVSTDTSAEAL
Description: as §1, §2

Chain of human CB2 receptors (P34972 whole entry): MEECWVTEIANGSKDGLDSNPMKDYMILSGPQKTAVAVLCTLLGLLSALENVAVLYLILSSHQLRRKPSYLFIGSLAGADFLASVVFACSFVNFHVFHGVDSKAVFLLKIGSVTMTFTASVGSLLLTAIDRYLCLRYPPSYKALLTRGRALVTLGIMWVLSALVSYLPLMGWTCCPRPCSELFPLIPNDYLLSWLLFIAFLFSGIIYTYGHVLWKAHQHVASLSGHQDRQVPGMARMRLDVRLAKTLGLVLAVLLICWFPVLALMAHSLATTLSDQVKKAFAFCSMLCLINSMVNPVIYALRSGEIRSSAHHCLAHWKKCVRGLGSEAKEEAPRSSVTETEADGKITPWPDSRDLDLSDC

Structure (SMILES)	EC50 (human CB2 receptors)	EC50 (human CB1 receptors)
CC(C)CS(=O)(=O)c1nc(C(=O)N2COCC2(C)C)ccc1C1CC1 [Example 31, [5-Cyclopropyl-6-(2-methyl-propane-1-sulfonyl)-pyridin-2-yl]-(4,4-dimethyl-oxazolidin-3-yl)-methanone]	0.0821 µM	> 10 µM
CC(C)(C)N(CCC(N)=O)C(=O)c1ccc(N2CC(F)(F)C2)c(OCC2CC2)n1 [Example 72, 6-Cyclopropylmethoxy-5-(3,3-difluoro-azetidin-1-yl)-pyridine-2-carboxylic acid tert-butyl-(2-carbamoyl-ethyl)-amide]	0.664 µM	> 10 µM
O=C(c1ccc(N2CC(F)(F)C2)c(OCC2CC2)n1)N1CC2CCOC2C1 (stereo not shown) [Example 70, [6-Cyclopropylmethoxy-5-(3,3-difluoro-azetidin-1-yl)-pyridin-2-yl]-(hexahydrofuro[2,3-c]pyrrol-5-yl)-methanone]	0.104 µM	> 10 µM
CC1(C)CC[C@@H](C(N)=O)N1C(=O)c1ccc(N2CC(F)(F)C2)c(OCC2CC2)n1 [Example 121, (S)-1-[6-Cyclopropylmethoxy-5-(3,3-difluoro-azetidin-1-yl)-pyridine-2-carbonyl]-5,5-dimethyl-pyrrolidine-2-carboxylic acid amide]	0.112 µM	> 10 µM
CC1(C)CCCN1C(=O)c1ccc(OCC2CC2)c(Cl)n1 [Example 47, (6-Chloro-5-cyclopropylmethoxy-pyridin-2-yl)-(2,2-dimethyl-pyrrolidin-1-yl)-methanone]	0.113 µM	> 10 µM
NC(=O)C1CSCCN1C(=O)c1ccc(C2CC2)c(OCC2CC2)n1 (stereo not shown) [Example 89, 4-(5-Cyclopropyl-6-cyclopropylmethoxy-pyridine-2-carbonyl)-thiomorpholine-3-carboxylic acid amide]	0.318 µM	> 10 µM
NC(=O)[C@@H]1CCCN1C(=O)c1ccc(C2CC2)c(OCC2CC2)n1 [Example 73, (S)-1-(5-Cyclopropyl-6-cyclopropylmethoxy-pyridine-2-carbonyl)-pyrrolidine-2-carboxylic acid amide]	0.637 µM	> 10 µM
O=C(c1ccc(N2CC(F)(F)C2)c(OCC2CC2)n1)N1CCC(O)(C(F)(F)F)C1 (stereo not shown) [Example 138, [6-(Cyclopropylmethoxy)-5-(3,3-difluoroazetidin-1-yl)pyridin-2-yl]-[3-hydroxy-3-(trifluoromethyl)pyrrolidin-1-yl]methanone]	0.0835 µM	> 10 µM
O=C(c1ccc(N2CC(F)(F)C2)c(OCC2CC2)n1)N1CCC12COC2 [Example 10, [6-Cyclopropylmethoxy-5-(3,3-difluoro-azetidin-1-yl)-pyridin-2-yl]-(6-oxa-1-aza-spiro[3.3]hept-1-yl)-methanone]	0.661 µM	> 10 µM
NC(=O)[C@@H]1CSCN1C(=O)c1ccc(N2CC(F)(F)C2)c(OCC2CC2)n1 [Example 112, (−)-3-[6-Cyclopropylmethoxy-5-(3,3-difluoro-azetidin-1-yl)-pyridine-2-carbonyl]-thiazolidine-4-carboxylic acid amide]	0.0198 µM	> 10 µM
O=C(c1ccc(C2CC2)c(OCC2CC2)n1)N1CC(O)(C(F)(F)F)C1 [Example 144, [5-Cyclopropyl-6-(cyclopropylmethoxy)pyridin-2-yl]-[3-hydroxy-3-(trifluoromethyl)azetidin-1-yl]methanone]	0.073 µM	> 10 µM
NC(=O)[C@@H]1CSCCN1C(=O)c1ccc(C2CC2)c(OCC2CC2)n1 [Example 93, (−)-4-(5-Cyclopropyl-6-cyclopropylmethoxy-pyridine-2-carbonyl)-thiomorpholine-3-carboxylic acid amide]	0.327 µM	> 10 µM
NC(=O)[C@@H]1CC(F)(F)CN1C(=O)c1ccc(N2CC(F)(F)C2)c(OCC2CC2)n1 [Example 60, (S)-1-[6-Cyclopropylmethoxy-5-(3,3-difluoro-azetidin-1-yl)-pyridine-2-carbonyl]-4,4-difluoro-pyrrolidine-2-carboxylic acid amide]	0.00308 µM	> 10 µM
O=C(c1ccc(C2CC2)c(OCC2CC2)n1)N1CCC(C(O)C(F)(F)F)C1 (stereo not shown) [Example 141, [5-Cyclopropyl-6-(cyclopropylmethoxy)pyridin-2-yl]-[3-(2,2,2-trifluoro-1-hydroxyethyl)pyrrolidin-1-yl]methanone]	0.262 µM	> 10 µM
Cn1nnnc1CN(C(=O)c1ccc(N2CC(F)(F)C2)c(OCC2CC2)n1)C(C)(C)C [Example 40, 6-Cyclopropylmethoxy-5-(3,3-difluoro-azetidin-1-yl)-pyridine-2-carboxylic acid tert-butyl-(1-methyl-1H-tetrazol-5-ylmethyl)-amide]	0.0818 µM	> 10 µM
CC1(C)CC(C2CCN(C(=O)c3ccc(N4CC(F)(F)C4)c(OCC4CC4)n3)CC2)C(=O)N1 (stereo not shown) [Example 58, 3-{1-[6-Cyclopropylmethoxy-5-(3,3-difluoro-azetidin-1-yl)-pyridine-2-carbonyl]-piperidin-4-yl}-5,5-dimethyl-pyrrolidin-2-one]	0.594 µM	> 10 µM
CN(C(=O)c1ccc(C(F)(F)F)c(OCC2CCCO2)n1)C(C)(C)C (stereo not shown) [Example 15, 6-(Tetrahydro-furan-2-ylmethoxy)-5-trifluoromethyl-pyridine-2-carboxylic acid tert-butyl-methyl-amide]	0.249 µM	> 10 µM
O=C(c1ccc(N2CC(F)(F)C2)c(OCC2CC2)n1)N1[C@@H]2CC[C@H]1COC2 [Example 86, [6-Cyclopropylmethoxy-5-(3,3-difluoro-azetidin-1-yl)-pyridin-2-yl]-(1R,5S)-3-oxa-8-aza-bicyclo[3.2.1]oct-8-yl-methanone]	0.0727 µM	> 10 µM
CC1CN(C(=O)c2ccc(N3CC(F)(F)C3)c(OCC3CC3)n2)CC(C)O1 (stereo not shown) [Example 119, [6-Cyclopropylmethoxy-5-(3,3-difluoro-azetidin-1-yl)-pyridin-2-yl]-(2,6-dimethyl-morpholin-4-yl)-methanone]	0.599 µM	> 10 µM
CC(Oc1nc(C(=O)N(C)C(C)(C)C)ccc1C1CC1)C(F)(F)F (stereo not shown) [Example 13, 5-Cyclopropyl-6-(2,2,2-trifluoro-1-methyl-ethoxy)-pyridine-2-carboxylic acid tert-butyl-methyl-amide]	0.119 µM	> 10 µM
Cc1nnc(CN(C(=O)c2ccc(N3CC(F)(F)C3)c(OCC3CC3)n2)C(C)(C)C)o1 [Example 36, 6-Cyclopropylmethoxy-5-(3,3-difluoro-azetidin-1-yl)-pyridine-2-carboxylic acid tert-butyl-(5-methyl-[1,3,4]oxadiazol-2-ylmethyl)-amide]	0.226 µM	> 10 µM
CC1(C)COCN1C(=O)c1ccc(OC(F)(F)F)c(OCC2CC2)n1 [Example 48, (6-Cyclopropylmethoxy-5-trifluoromethoxy-pyridin-2-yl)-(4,4-dimethyl-oxazolidin-3-yl)-methanone]	0.108 µM	> 10 µM
CC1(C)COCCN1C(=O)c1ccc(N2CC(F)(F)C2)c(OCC2CC2)n1 [Example 17, [6-Cyclopropylmethoxy-5-(3,3-difluoro-azetidin-1-yl)-pyridin-2-yl]-(3,3-dimethyl-morpholin-4-yl)-methanone]	0.0052 µM	> 10 µM
